Our source for the IC50 values is patent publication US9243001B2, “Substituted benzene compounds” (Epizyme, Inc., priority 2013, dated 2016).

This assay deals with T1, wild-type EZH2 (PRC2 enzyme) (Homo sapiens, UniProt Q15910).
T1 construct: made in house; host or cells: Spodoptera frugiperda (sf9) cells, baculovirus
T1 sequence (Q15910 1-751 isoform Q15910-2): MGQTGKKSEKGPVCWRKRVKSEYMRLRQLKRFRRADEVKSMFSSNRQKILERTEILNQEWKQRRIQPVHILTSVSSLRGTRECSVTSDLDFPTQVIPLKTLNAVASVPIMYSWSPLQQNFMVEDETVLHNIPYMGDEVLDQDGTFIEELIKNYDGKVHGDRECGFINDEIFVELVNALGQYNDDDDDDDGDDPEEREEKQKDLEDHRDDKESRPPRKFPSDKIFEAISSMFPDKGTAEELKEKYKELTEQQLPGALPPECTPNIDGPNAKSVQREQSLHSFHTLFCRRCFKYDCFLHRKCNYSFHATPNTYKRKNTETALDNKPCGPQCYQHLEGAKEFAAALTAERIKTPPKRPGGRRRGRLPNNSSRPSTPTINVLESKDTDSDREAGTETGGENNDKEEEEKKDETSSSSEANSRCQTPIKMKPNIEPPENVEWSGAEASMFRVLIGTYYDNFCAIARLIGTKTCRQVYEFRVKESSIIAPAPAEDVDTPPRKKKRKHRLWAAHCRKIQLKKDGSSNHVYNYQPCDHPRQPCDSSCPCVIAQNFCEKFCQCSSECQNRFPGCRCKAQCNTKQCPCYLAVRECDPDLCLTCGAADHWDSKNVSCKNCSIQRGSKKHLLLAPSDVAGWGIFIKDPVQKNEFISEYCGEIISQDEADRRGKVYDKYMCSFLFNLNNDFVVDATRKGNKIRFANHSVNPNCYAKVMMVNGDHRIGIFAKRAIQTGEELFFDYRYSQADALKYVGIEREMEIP
T1 sequence (O75530 whole entry partner): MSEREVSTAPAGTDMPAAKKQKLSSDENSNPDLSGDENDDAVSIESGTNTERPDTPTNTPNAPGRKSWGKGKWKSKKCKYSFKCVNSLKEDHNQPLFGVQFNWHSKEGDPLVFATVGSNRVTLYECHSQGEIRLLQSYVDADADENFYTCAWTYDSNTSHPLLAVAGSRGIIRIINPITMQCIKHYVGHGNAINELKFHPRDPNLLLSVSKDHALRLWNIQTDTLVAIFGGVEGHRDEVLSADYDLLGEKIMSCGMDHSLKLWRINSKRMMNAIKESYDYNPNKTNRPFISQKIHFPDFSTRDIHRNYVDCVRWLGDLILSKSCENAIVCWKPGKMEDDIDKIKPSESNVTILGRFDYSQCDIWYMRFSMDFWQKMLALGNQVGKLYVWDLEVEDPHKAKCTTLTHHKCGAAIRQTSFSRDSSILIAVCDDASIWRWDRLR
T1 sequence (Q15022 whole entry partner): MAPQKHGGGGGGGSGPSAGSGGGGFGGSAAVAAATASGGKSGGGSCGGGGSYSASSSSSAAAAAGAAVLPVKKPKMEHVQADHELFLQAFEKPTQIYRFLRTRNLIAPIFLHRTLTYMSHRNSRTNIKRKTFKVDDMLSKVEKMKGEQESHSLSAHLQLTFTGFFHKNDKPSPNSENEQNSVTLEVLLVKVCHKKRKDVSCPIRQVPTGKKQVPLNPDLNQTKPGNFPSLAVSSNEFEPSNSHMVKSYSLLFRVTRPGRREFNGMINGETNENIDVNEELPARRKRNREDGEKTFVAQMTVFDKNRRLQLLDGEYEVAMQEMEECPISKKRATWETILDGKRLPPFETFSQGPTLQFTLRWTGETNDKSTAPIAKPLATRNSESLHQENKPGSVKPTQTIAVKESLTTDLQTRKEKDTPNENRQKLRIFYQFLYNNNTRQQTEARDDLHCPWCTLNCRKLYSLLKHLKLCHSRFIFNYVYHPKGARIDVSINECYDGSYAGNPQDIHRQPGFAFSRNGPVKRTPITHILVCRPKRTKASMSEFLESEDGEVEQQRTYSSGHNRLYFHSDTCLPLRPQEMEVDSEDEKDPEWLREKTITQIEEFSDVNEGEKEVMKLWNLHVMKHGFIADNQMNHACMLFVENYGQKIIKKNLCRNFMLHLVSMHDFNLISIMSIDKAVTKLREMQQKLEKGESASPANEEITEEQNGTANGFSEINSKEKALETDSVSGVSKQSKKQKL
T1 sequence (Q09028 whole entry partner): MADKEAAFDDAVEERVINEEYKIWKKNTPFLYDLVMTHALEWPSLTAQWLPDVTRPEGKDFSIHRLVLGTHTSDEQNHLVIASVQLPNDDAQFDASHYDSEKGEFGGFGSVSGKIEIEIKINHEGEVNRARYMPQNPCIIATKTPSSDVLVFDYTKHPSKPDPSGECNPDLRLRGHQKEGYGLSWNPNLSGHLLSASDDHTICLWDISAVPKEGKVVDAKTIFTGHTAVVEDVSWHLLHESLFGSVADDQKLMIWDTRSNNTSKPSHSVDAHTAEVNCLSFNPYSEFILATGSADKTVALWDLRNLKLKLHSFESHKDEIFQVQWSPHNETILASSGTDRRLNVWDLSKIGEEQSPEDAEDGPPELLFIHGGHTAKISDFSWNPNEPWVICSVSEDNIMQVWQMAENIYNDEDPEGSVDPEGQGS
In words: PRC2 enzyme assay on peptide substrates (wild-type EZH2). The format is biochemical. As to conditions: wild-type PRC2 enzyme 4 nM, H3K27me0 peptide substrate, 3H-SAM Flashplate; read-out: WT EZH2 IC50. The text has this: General Materials. S-adenosylmethionine (SAM), S-adenosylhomocyteine (SAH), bicine, KCl, Tween20, dimethylsulfoxide (DMSO) and bovine skin gelatin (BSG) were purchased from Sigma-Aldrich at the highest level of purity possible. Dithiothreitol (DTT) was purchased from EMD Millipore. ^3H-SAM was purchased from American Radiolabeled Chemicals with a specific activity of 80 Ci/mmol. 384-well streptavidin Flashplates were purchased from PerkinElmer.
Substrates. Peptides representative of human histone H3 residues 21- 44 containing either an unmodified lysine 27 (H3K27me0) or dimethylated lysine 27 (H3K27me2) are synthesized with a C-terminal G(K-biotin) linker-affinity tag motif and a C-terminal amide cap by 21st Century Biochemicals. The peptides are high-performance liquid chromatography (HPLC) purified to greater than 95% purity and confirmed by liquid chromatography mass spectrometry (LC-MS). The sequences are listed below.
Recombinant PRC2 Enzymes. Human PRC2 enzymes were purified as 4-component enzyme complexes co-expressed in Spodoptera frugiperda (sf9) cells using a baculovirus expression system. The subunits expressed were wild-type EZH2 (NM_004456) or EZH2 Y641F, N, H, S or C mutants generated from the wild-type EZH2 construct, EED (NM_003797), Suz12 (NM_015355) and RbAp48 (NM_005610). The EED subunit contained an N-terminal FLAG tag that was used to purify the entire 4-component complex from sf9 cell lysates. The purity of the complexes met or exceeded 95% as determined by SDS-PAGE and Agilent Bioanalyzer analysis. Concentrations of enzyme stock concentrations (generally 0.3-1.0 mg/mL) was determined using a Bradford assay against a bovine serum albumin (BSA) standard.
General Procedure for PRC2 Enzyme Assays on Peptide Substrates. The assays were all performed in a buffer consisting of 20 mM bicine (pH=7.6), 0.5 mM DTT, 0.005% BSG and 0.002% Tween20, prepared on the day of use. Compounds in 100% DMSO (1 μL) were spotted into polypropylene 384-well V-bottom plates (Greiner) using a Platemate 2×3 outfitted with a 384-channel pipet head (Thermo). DMSO (1 μL) was added to columns 11, 12, 23, 24, rows A -H for the maximum signal control, and SAH, a known product and inhibitor of PRC2 (1 μL) was added to columns 11,12, 23, 24, rows I -P for the minimum signal control. A cocktail (40 μL) containing the wild-type PRC2 enzyme and H3K27me0 peptide or any of the Y641 mutant enzymes and H3K27me2 peptide was added by Multidrop Combi (Thermo). The compounds were allowed to incubate with PRC2 for 30 min at 25° C., then a cocktail (10 μL) containing a mixture of non-radioactive and ^3H-SAM was added to initiate the reaction (final volume=51 μL). In all cases, the final concentrations were as follows: wild-type or mutant PRC2 enzyme was 4 nM, SAH in the minimum signal control wells was 1 mM and the DMSO concentration was 1%. The assays were stopped by the addition of non-radioactive SAM (10 μL) to a final concentration of 600 μM, which dilutes the ^3H-SAM to a level where its incorporation into the peptide substrate is no longer detectable. 50 μL of the reaction in the 384-well polypropylene plate was then transferred to a 384-well Flashplate and the biotinylated peptides were allowed to bind to the streptavidin surface for at least 1 h before being washed three times with 0.1% Tween20 in a Biotek ELx405 plate washer. The plates were then read in a PerkinElmer TopCount platereader to measure the quantity of ^3H-labeled peptide bound to the Flashplate surface, measured as disintegrations per minute (dpm) or alternatively, referred to as counts per minute (cpm).
Where dpm=disintegrations per minute, cmpd=signal in assay well, and min and max are the respective minimum and maximum signal controls.
Where top and bottom are the normally allowed to float, but may be fixed at 100 or 0 respectively in a 3-parameter fit. The Hill Coefficient normally allowed to float but may also be fixed at 1 in a 3-parameter fit. […]
For `CCN(c1cc(Cl)cc(C(=O)NCc2ccc(C)c3cn(C)nc23)c1C)C1CCC(N(C)C)CC1` (centres unmarked) [Compound 4, 5-chloro-N-((2,4-dimethyl-2H-indazol-7-yl)methyl)-3-(((1s,4s)-4-(dimethylamino)cyclohexyl)(ethyl)amino)-2-methylbenzamide], the IC50 – broadly, the midpoint of a concentration-inhibition curve – is 5.13 µM. Then `CCN(c1cc(Cl)cc(C(=O)NCc2c(C)ccn3ccnc23)c1C)[C@H]1CC[C@H](N(C)C)CC1` [Compound 2, 5-chloro-3-(((trans)-4-(dimethylamino)cyclohexyl)(ethyl)amino)-2-methyl-N-((7-methylimidazo[1,2-a]pyridin-8-yl)methyl)benzamide], with 1.38 µM; and `CCN(c1cc(Cl)cc(C(=O)NCCc2nc3ccccc3n2C)c1C)[C@H]1CC[C@H](N(C)C)CC1` [Compound 11, 5-chloro-3-(((trans)-4-(dimethylamino)cyclohexyl)(ethyl)amino)-2-methyl-N-(2-(1-methyl-1H-benzo[d]imidazol-2-yl)ethyl)benzamide], with above 50 µM. For `CCN(c1cc(Cl)cc(C(=O)NCc2ncc(C)[nH]2)c1C)[C@H]1CC[C@H](N(C)C)CC1` [Compound 20, 5-chloro-3-(((trans)-4-(dimethylamino)cyclohexyl)(ethyl)amino)-2-methyl-N-((5-methyl-1H-imidazol-2-yl)methyl)benzamide], the IC50 was above 10 µM. With `CCN(c1cc(Cl)cc(C(=O)NCc2ccn(C)n2)c1C)C1CCOCC1` [Compound 28, 5-chloro-3-(ethyl(tetrahydro-2H-pyran-4-yl)amino)-2-methyl-N-((1-methyl-1H-pyrazol-3-yl)methyl)benzamide], the IC50 worked out at 14.8 µM. Then `CCN(c1cc(Cl)cc(C(=O)NCc2cnn(C)c2C)c1C)C1CCOCC1` [Compound 27, 5-chloro-N-((1,5-dimethyl-1H-pyrazol-4-yl)methyl)-3-(ethyl(tetrahydro-2H-pyran-4-yl)amino)-2-methylbenzamide], with above 50 µM; and `CCN(c1cc(Cl)cc(C(=O)NCCc2nccn2C)c1C)[C@H]1CC[C@H](N(C)C)CC1` [Compound 8, 5-chloro-3-(((trans)-4-(dimethylamino)cyclohexyl)(ethyl)amino)-2-methyl-N-(2-(1-methyl-1H-imidazol-2-yl)ethyl)benzamide], with 12.2 µM. Next, `CCN(c1cc(Cl)cc(C(=O)NCCc2nc3ccccc3s2)c1C)[C@H]1CC[C@H](N(C)C)CC1` [Compound 13, N-(2-(benzo[d]thiazol-2-yl)ethyl)-5-chloro-3-(((trans)-4-(dimethylamino)cyclohexyl)(ethyl)amino)-2-methylbenzamide]: 37.7 µM. Next, `CCN(c1cc(Cl)cc(C(=O)NCc2cc(C)nn2C)c1C)C1CCOCC1` [Compound 31, 5-chloro-N-((1,3-dimethyl-1H-pyrazol-5-yl)methyl)-3-(ethyl(tetrahydro-2H-pyran-4-yl)amino)-2-methylbenzamide]: above 50 µM; `CCN(c1cc(Cl)cc(C(=O)NCc2nccn2C)c1C)[C@H]1CC[C@H](N(C)C)CC1` [Compound 16, 5-chloro-3-(((tans)-4-(dimethylamino)cyclohexyl)(ethyl)amino)-2-methyl-N-((1-methyl-1H-imidazol-2-yl)methyl)benzamide]: 3.11 µM. For the molecule `CCN(c1cc(Cl)cc(C(=O)NCCc2nc3ccccc3[nH]2)c1C)[C@H]1CC[C@H](N(C)C)CC1` [Compound 21, N-(2-(1H-benzo[d]imidazol-2-yl)ethyl)-5-chloro-3-(((1r,4r)-4-(dimethylamino)cyclohexyl)(ethyl)amino)-2-methylbenzamide], the IC50 was 37.1 µM.

On to `CCN(c1cc(Cl)cc(C(=O)NCc2ncc[nH]2)c1C)[C@H]1CC[C@H](N(C)C)CC1` [Compound 15, N-((1H-imidazol-2-yl)methyl)-5-chloro-3-(((trans)-4-(dimethylamino)cyclohexyl)(ethyl)amino)-2-methylbenzamide], for which the IC50 was above 10 µM. Next, `CCN(c1cc(Cl)cc(C(=O)NCCc2nccn2Cc2ccccc2)c1C)[C@H]1CC[C@H](N(C)C)CC1` [Compound 9, N-(2-(1-benzyl-1H-imidazol-2-yl)ethyl)-5-chloro-3-(((trans)-4-(dimethylamino)cyclohexyl)(ethyl)amino)-2-methylbenzamide]: 1.65 µM. Consider `CCN(c1cc(Cl)cc(C(=O)NCc2nccn2C)c1C)C1CCOCC1` [Compound 23, 5-chloro-3-(ethyl(tetrahydro-2H-pyran-4-yl)amino)-2-methyl-N-((1-methyl-1H-imidazol-2-yl)methyl)benzamide], for which the IC50 came to 23.7 µM. `CCN(c1cc(Cl)cc(C(=O)NCCc2nccs2)c1C)[C@H]1CC[C@H](N(C)C)CC1` [Compound 12, 5-chloro-3-(((trans)-4-(dimethylamino)cyclohexyl)(ethyl)amino)-2-methyl-N-(2-(thiazol-2-yl)ethyl)benzamide]: the IC50 is above 50 µM. Next, `CCN(c1cc(Cl)cc(C(=O)NCCc2nc3ccccc3o2)c1C)[C@H]1CC[C@H](N(C)C)CC1` [Compound 14, N-(2-(benzo[d]oxazol-2-yl)ethyl)-5-chloro-3-(((trans)-4-(dimethylamino)cyclohexyl)(ethyl)amino)-2-methylbenzamide]: 6.55 µM. Next, `CCN(c1cc(Cl)cc(C(=O)NCc2c[nH]cn2)c1C)C1CCOCC1` [Compound 30, N-((1H-imidazol-4-yl)methyl)-5-chloro-3-(ethyl(tetrahydro-2H-pyran-4-yl)amino)-2-methylbenzamide]: 0.32 µM. Regarding `CCN(c1cc(Cl)cc(C(=O)NCc2c(C)cc(C)n3ccnc23)c1C)[C@H]1CC[C@H](N(C)C)CC1` [Compound 1, 5-chloro-3-(((trans)-4-(dimethylamino)cyclohexyl)(ethyl)amino)-N-((5,7-dimethylimidazo[1,2-a]pyridin-8-yl)methyl)-2-methylbenzamide], the IC50 was 0.433 µM. Next, `CCN(c1cc(Cl)cc(C(=O)NCc2nc3ccccc3[nH]2)c1C)[C@H]1CC[C@H](N(C)C)CC1` [Compound 19, N-((1H-benzo[d]imidazol-2-yl)methyl)-5-chloro-3-(((1r,4r)-4-(dimethylamino)cyclohexyl)(ethyl)amino)-2-methylbenzamide]: above 10 µM; `CCN(c1cc(Cl)cc(C(=O)NCc2cc(C)on2)c1C)C1CCOCC1` [Compound 29, 5-chloro-3-(ethyl(tetrahydro-2H-pyran-4-yl)amino)-2-methyl-N-((5-methylisoxazol-3-yl)methyl)benzamide]: above 50 µM. Regarding `CCN(c1cc(Cl)cc(C(=O)NCc2cncn2C)c1C)C1CCOCC1` [Compound 22, 5-chloro-3-(ethyl(tetrahydro-2H-pyran-4-yl)amino)-2-methyl-N-((1-methyl-1H-imidazol-5-yl)methyl)benzamide], the IC50 was above 50 µM. `CCN(c1cc(Cl)cc(C(=O)NCc2nccs2)c1C)C1CCOCC1` [Compound 24, 5-chloro-3-(ethyl(tetrahydro-2H-pyran-4-yl)amino)-2-methyl-N-(thiazol-2-ylmethyl)benzamide]: the IC50 is above 50 µM. `CCN(c1cc(Cl)cc(C(=O)NCc2cccc3ccnn23)c1C)[C@H]1CC[C@H](N(C)C)CC1` [Compound 7, 5-chloro-3-(((trans)-4-(dimethylamino)cyclohexyl)(ethyl)amino)-2-methyl-N-(pyrazolo[1,5-a]pyridin-7-ylmethyl)benzamide]: the concentration for half-maximal inhibition (IC50) is above 10 µM.
